Test results taken from the NIST ThermoML archive (doi:10.1021/je050196o).

Legend:
[1] = 101 kPa, Liquid; for viscosity: Capillary tube (Ostwald / Ubbelohde) method; for mass density: Pycnometric method
[2] = xn = mol fraction of the nth substance listed; settings: 101 kPa, Liquid; for viscosity: Capillary tube (Ostwald / Ubbelohde) method; for mass density: Pycnometric method

COCC(C)OC(C)=O (stereo unspecified) [1-methoxy-2-propyl acetate]
[1]
Settings | mass density [kg/m3] | viscosity [mPa·s]
298.15 K | 961.4 | 1.071
308.15 K | 951.4 | 0.904
318.15 K | 940.7 | 0.777

COCC(C)OC(C)=O (stereo unspecified) [1-methoxy-2-propyl acetate] + C=C(C)C(=O)O
[2], x1 = 1
Settings | mass density [kg/m3] | viscosity [mPa·s]
298.15 K | 961.4 | 1.071
308.15 K | 951.4 | 0.904
318.15 K | 940.7 | 0.777

COCC(C)OC(C)=O (stereo unspecified) [1-methoxy-2-propyl acetate] + C=C(C)C(=O)OCCO
[2], x1 = 1
Settings | mass density [kg/m3] | viscosity [mPa·s]
298.15 K | 961.4 | 1.071
308.15 K | 951.4 | 0.904
318.15 K | 940.7 | 0.777

COCC(C)OC(C)=O (stereo unspecified) [1-methoxy-2-propyl acetate] + C=C(C)C(=O)OCc1ccccc1
[2], x1 = 1
Settings | mass density [kg/m3] | viscosity [mPa·s]
298.15 K | 961.4 | 1.071
308.15 K | 951.4 | 0.904
318.15 K | 940.7 | 0.777

C=C(C)C(=O)OCCO [2-hydroxyethyl 2-methyl-2-propenoate]
[1]
Settings | mass density [kg/m3] | viscosity [mPa·s]
298.15 K | 1067.1 | 5.784
308.15 K | 1057.7 | 4.194
318.15 K | 1048.6 | 3.181

C=C(C)C(=O)OCCO [2-hydroxyethyl 2-methyl-2-propenoate] + COCC(C)OC(C)=O
[2]
Settings | mass density, 298.15 K [kg/m3] | mass density, 308.15 K [kg/m3] | mass density, 318.15 K [kg/m3] | viscosity, 298.15 K [mPa·s] | viscosity, 308.15 K [mPa·s] | viscosity, 318.15 K [mPa·s]
x2 = 0 | 1067.1 | 1057.7 | 1048.6 | 5.784 | 4.194 | 3.181
x2 = 0.1 | 1056.4 | 1046.7 | 1037.3 | 4.764 | 3.519 | 2.71
x2 = 0.2 | 1045.7 | 1035.9 | 1026.1 | 3.84 | 2.9 | 2.273
x2 = 0.3 | 1034.9 | 1025 | 1015.1 | 3.222 | 2.477 | 1.969
x2 = 0.4 | 1024.1 | 1014.2 | 1004.1 | 2.719 | 2.123 | 1.709
x2 = 0.5 | 1013.5 | 1003.5 | 993.3 | 2.257 | 1.79 | 1.461
x2 = 0.6 | 1003 | 993 | 982.6 | 1.922 | 1.55 | 1.284
x2 = 0.7 | 992.6 | 982.5 | 972 | 1.651 | 1.341 | 1.117
x2 = 0.8 | 982.2 | 971.9 | 961.3 | 1.389 | 1.147 | 0.969
x2 = 0.8999 | 971.8 | 961.5 | 950.8 | 1.234 | 1.052 | 0.889

C=C(C)C(=O)O [2-methyl-2-propenoic acid]
[1]
Settings | mass density [kg/m3] | viscosity [mPa·s]
298.15 K | 1009.5 | 1.267
308.15 K | 999.4 | 1.078
318.15 K | 989.2 | 0.945
